Data on nine compounds can be found in PubChem BioAssay (NCI).

Holding throughout (assay): NCI-60 cell line screen, 48 h
In experiment [1] the test system is MOLT-4 leukemia.
The subject of experiment [2] is SNB-75 CNS.
In experiment [3] the test system is IGROV1 ovarian.
Experiment [4] relates to OVCAR-8 ovarian.
The subject of experiment [5] is SR leukemia.
In experiment [6] the test system is NCI/ADR-RES ovarian.
The subject of experiment [7] is HOP-92 NSCLC.
Experiment [8] relates to SW-620 colon.
Experiment [9] concerns LOX IMVI melanoma.
For experiment [10], the system named is RXF 393 renal.

The structures appear in SMILES notation. Where “and” joins values, the source holds several entries; their conditions need not be identical. Equal entries are not always repeated.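 Grown in 96-well plates, cells were treated for 48 hours with each compound at five concentrations. Insufficient inhibition: endpoint recorded as highest concentration tested. Here, GI50 denotes the concentration required for 50% inhibition of growth. TGI: concentration producing complete growth inhibition.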

With `CC(C)c1[nH]nc2c(NCc3ccc(-c4ccccn4)cc3)nc(SCCN)nc12`, the GI50 in experiment [1] is 5.05 nM; in experiment [2], 5.87 nM; in experiment [3] it was 21.5 nM and 23.1 nM; in experiment [4], 38.7 nM and 24.3 nM; in experiment [5], 12.6 nM; in experiment [6], 4870 nM and 3560 nM. Further, the GI50 in [7] is 16.9 nM and 22.2 nM; in experiment [8], 12 nM; in experiment [9], 5.53 nM; in experiment [10], 16.9 nM. In addition, the TGI in experiment [1] was 169 nM and 102 nM; in [2] it was 33.1 nM and 44.8 nM; in experiment [3] it was 12400 nM; in experiment [4], 12900 nM; in [5] it was 2030 nM; in [6], 21300 nM. The TGI was 2620 nM and 1650 nM in experiment [9]; 53.2 nM in experiment [10].

In the case of `O=C(N/N=C/c1cc(Cl)ccc1O)c1ccccc1Nc1ccnc(C(F)(F)F)c1`, the GI50 is 241 nM in experiment [1]; 703 nM in experiment [2]; 361 nM in experiment [3]; 493 nM in [4]; 246 nM in experiment [5]; 473 nM in [6]. Besides, the GI50 in experiment [7] is 833 nM; in experiment [8] it was 612 nM; in experiment [9], 263 nM; in [10], 517 nM. Also, the TGI was 6270 nM in [1]; 20800 nM in experiment [2]; 13300 nM in [3]; 15500 nM in experiment [4]; 1760 nM in [5]; 9030 nM in [6]. Besides, the TGI in experiment [7] was 12100 nM; in [8] it was 12700 nM; in experiment [9], 12000 nM; in experiment [10] it was 14100 nM.

For `COc1cc(C2c3cc4c(cc3[C@@H](Nc3ccc([N+](=O)[O-])cc3)C3COC(=O)[C@H]23)OCO4)cc(OC)c1O` (some centres undefined), the GI50 in [1] is 34.2 nM; in experiment [2] it was 333 nM; in [4], 981 nM; in experiment [5], 45 nM; in [7] it was 393 nM; in experiment [8] it was 783 nM. Also, the GI50 in [9] was 367 nM. Besides, the TGI is 544 nM and 442 nM in [1]; 836 nM and 7830 nM in experiment [2]; 24300 nM in [3]; 11000 nM in [4]; 802 nM and 2180 nM in experiment [5]; above 93600 nM in experiment [6]. The figures for the TGI in experiment [8], in experiment [9] and in experiment [10] were above 91700 nM, 6670 nM and 6930 nM, respectively.

`Cc1ccc(N=Nc2c(O)ccc3n[nH]nc23)cc1`: the GI50 was 2890 nM in experiment [1]; 17400 nM in experiment [2]; 12200 nM in experiment [3]; 16500 nM in experiment [4]; 14000 nM in experiment [5]; 10200 nM in experiment [6]. In addition, the GI50 in experiment [7] is 15400 nM; in experiment [8], 12300 nM; in experiment [9], 12700 nM; in experiment [10] it was 13200 nM. Further, the TGI in experiment [1] is 12800 nM; in experiment [2], above 100000 nM; in experiment [3], 50600 nM; in [4] it was 75000 nM; in experiment [5], 64800 nM; in experiment [6], 73200 nM. Further, the TGI in experiment [7] was 83800 nM; in experiment [8], above 100000 nM; in experiment [9], above 100000 nM; in experiment [10], 82100 nM.

For `Cc1ccc(NC(=S)C#N)c(C)c1`, the TGI in experiment [1], in experiment [2], in [3], in experiment [4], in [5] and in experiment [6] was above 100000 nM in each case. Also, the TGI in experiment [7], in [8], in [9] and in experiment [10] was above 100000 nM each time.

Consider `CSc1ccc(NC(=O)Nc2cc(C)ccn2)cc1`, for which the TGI in [1], in experiment [2], in [3], in experiment [4], in experiment [5] and in [6] was above 100000 nM each time. The TGI in experiment [7], in experiment [8], in [9] and in [10] was above 100000 nM in each case.

Regarding `C[C@H]1COCCN1c1nc(-c2cnc(N)cc2C(F)F)nc(N2CCOCC2)n1`, the GI50 in experiment [1] is 225 nM; in [2] it was 35.5 nM; in experiment [3] it was 36.4 nM; in experiment [4], 291 nM; in [5] it was 275 nM; in experiment [6] it was 253 nM. Moreover, the GI50 in experiment [7] is 19.7 nM; in experiment [8], 258 nM; in experiment [9], 152 nM; in experiment [10], 129 nM. In addition, the TGI in [1] is 33000 nM; in [2], 354 nM; in experiment [3], 285 nM; in experiment [4], above 100000 nM; in experiment [5], 29100 nM; in [6] it was above 21700 nM. Also, the TGI was 197 nM in experiment [7], above 100000 nM in experiment [8], 4440 nM in [9] and 617 nM in experiment [10].

For the compound `C=C1C(=O)O[C@H]2[C@H]1CC/C(COC(=O)CCCCCCCC(=O)OC/C1=C/CC[C@@]3(C)O[C@H]3[C@H]3OC(=O)C(=C)[C@@H]3CC1)=C\CC[C@@]1(C)O[C@@H]21`, the GI50 was 791 nM in experiment [1]; 12300 nM in [2]; 2220 nM in [3]; 2750 nM in experiment [4]; 398 nM in [5]; 3350 nM in experiment [6]. Besides, the GI50 in experiment [7] is 2160 nM; in [8], 1460 nM; in experiment [9], 1480 nM; in [10], 1430 nM. Moreover, the TGI in experiment [1] was 11400 nM; in [2], 35900 nM; in experiment [3], 5920 nM; in [4], 8440 nM; in experiment [5], 10600 nM; in experiment [6], above 100000 nM. For the same compound, the TGI in experiment [7] amounted to 5070 nM; in [8] it was 3240 nM; in [9], 2950 nM; in experiment [10], 2880 nM.

Consider `CCCS(=O)c1nc(COC(=O)NC)c(COC(=O)NC)n1C` (centres undefined), for which the TGI in [1], in [2], in [3], in experiment [4], in experiment [5] and in experiment [6] was above 100000 nM each time. For the same compound, the TGI in experiment [7], in [8], in [9] and in experiment [10] was above 100000 nM throughout.
